PubChem BioAssay (NCI)
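Method: 48-hour compound exposure of cells in 96-well plates, five concentrations, linear interpolation of endpoints. TGI is the concentration that stops growth completely.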

Tests used:
Experiment in all cases: NCI-60 cell line screen, 48 h
SK-MEL-2 melanoma = tested on: SK-MEL-2 melanoma
KM12 colon = tested on: KM12 colon
HCT-116 colon = tested on: HCT-116 colon
786-0 renal = tested on: 786-0 renal
COLO 205 colon = tested on: COLO 205 colon
ACHN renal = tested on: ACHN renal
MCF7 breast = tested on: MCF7 breast
SR leukemia = tested on: SR leukemia
SF-295 CNS = tested on: SF-295 CNS
IGROV1 ovarian = tested on: IGROV1 ovarian
HCC-2998 colon = tested on: HCC-2998 colon
SF-268 CNS = tested on: SF-268 CNS
K-562 leukemia = tested on: K-562 leukemia
NCI-H460 lung = tested on: NCI-H460 lung
NCI-H226 lung = tested on: NCI-H226 lung
UACC-257 melanoma = tested on: UACC-257 melanoma
OVCAR-5 ovarian = tested on: OVCAR-5 ovarian
SF-539 CNS = tested on: SF-539 CNS
RPMI-8226 leukemia = tested on: RPMI-8226 leukemia
HOP-62 NSCLC = tested on: HOP-62 NSCLC
HS 578T breast = tested on: HS 578T breast
SK-MEL-28 melanoma = tested on: SK-MEL-28 melanoma
NCI-H522 lung = tested on: NCI-H522 lung
OVCAR-4 ovarian = tested on: OVCAR-4 ovarian
HCT-15 colon = tested on: HCT-15 colon
UO-31 renal = tested on: UO-31 renal
HL-60(TB) leukemia = tested on: HL-60(TB) leukemia
MALME-3M melanoma = tested on: MALME-3M melanoma
CCRF-CEM leukemia = tested on: CCRF-CEM leukemia
TK-10 renal = tested on: TK-10 renal
NCI-H23 lung = tested on: NCI-H23 lung
BT-549 breast = tested on: BT-549 breast
CAKI-1 renal = tested on: CAKI-1 renal
MDA-MB-435 = tested on: MDA-MB-435
NCI/ADR-RES ovarian = tested on: NCI/ADR-RES ovarian
SNB-19 CNS = tested on: SNB-19 CNS
MOLT-4 leukemia = tested on: MOLT-4 leukemia
T-47D breast = tested on: T-47D breast
SNB-75 CNS = tested on: SNB-75 CNS
A498 renal = tested on: A498 renal

With `Cc1c(C(=O)OCc2ccccc2)[n+](=O)c2cc(F)c(F)cc2n1[O-]` the TGI (SK-MEL-2 melanoma) was 3.51 µM, the TGI (KM12 colon) was 39.4 µM and the TGI (HCT-116 colon) was > 100 µM. For the same molecule, the TGI (786-0 renal) was > 100 µM, the TGI (COLO 205 colon) was 9.62 µM and the TGI (ACHN renal) was 3.85 µM. The TGI (MCF7 breast) was 6.32 µM, the TGI (SR leukemia) was 3.19 µM and the TGI (SF-295 CNS) was 4.06 µM. The TGI (IGROV1 ovarian) was 3.3 µM, the TGI (HCC-2998 colon) was 4.68 µM and the TGI (SF-268 CNS) was 4.53 µM. For the same molecule, the TGI (K-562 leukemia) was > 100 µM, the TGI (NCI-H460 lung) was 6.6 µM and the TGI (NCI-H226 lung) was 6.74 µM. For the same molecule, the TGI (UACC-257 melanoma) was 4 µM, the TGI (OVCAR-5 ovarian) was > 100 µM and the TGI (SF-539 CNS) was 5.75 µM. For the same molecule, the TGI (RPMI-8226 leukemia) was > 100 µM, the TGI (HOP-62 NSCLC) was > 100 µM and the TGI (HS 578T breast) was 2.97 µM. The TGI (SK-MEL-28 melanoma) was 4.07 µM, the TGI (NCI-H522 lung) was 3.96 µM and the TGI (OVCAR-4 ovarian) was 3.53 µM. For the same molecule, the TGI (HCT-15 colon) was > 100 µM, the TGI (UO-31 renal) was 3.36 µM and the TGI (HL-60(TB) leukemia) was 3.53 µM. For the same molecule, the TGI (MALME-3M melanoma) was 4.48 µM, the TGI (CCRF-CEM leukemia) was > 100 µM and the TGI (TK-10 renal) was 37.7 µM. The TGI (NCI-H23 lung) was 6.27 µM, the TGI (BT-549 breast) was 3.62 µM and the TGI (CAKI-1 renal) was 3.92 µM. For the same molecule, the TGI (MDA-MB-435) was 3.94 µM, the TGI (NCI/ADR-RES ovarian) was > 100 µM and the TGI (SNB-19 CNS) was 3.87 µM. The TGI (MOLT-4 leukemia) was 5.5 µM, the TGI (T-47D breast) was 4.86 µM and the TGI (SNB-75 CNS) was 4.68 µM. The TGI (A498 renal) was 3.12 µM.
